The record followed here is US9206128B2 (Constellation Pharmaceuticals, Inc., priority 2011, dated 2015).

One assay addresses EZH2 (Homo sapiens, UniProt Q15910). Put plainly: EZH2 activity inhibition assay (rPRC2, 3H SAM, biotinylated oligonucleosomes, FlashPlate). The format is biochemical. To be noted: rPRC2, 2 nM EZH2, 0.2 μM 3H SAM, top concentration 80 μM.
The target in another assay is Y641N EZH2 (Homo sapiens, UniProt Q15910, Y641N). Put plainly: Y641N EZH2 activity inhibition assay (as EZH2 assay, reconstituted H3K27Me2 oligonucleosomes as substrate). The format is biochemical. To be noted: Y641N EZH2 mutant enzyme.
Y641N EZH2, sequence (Q15910 whole entry Y641N): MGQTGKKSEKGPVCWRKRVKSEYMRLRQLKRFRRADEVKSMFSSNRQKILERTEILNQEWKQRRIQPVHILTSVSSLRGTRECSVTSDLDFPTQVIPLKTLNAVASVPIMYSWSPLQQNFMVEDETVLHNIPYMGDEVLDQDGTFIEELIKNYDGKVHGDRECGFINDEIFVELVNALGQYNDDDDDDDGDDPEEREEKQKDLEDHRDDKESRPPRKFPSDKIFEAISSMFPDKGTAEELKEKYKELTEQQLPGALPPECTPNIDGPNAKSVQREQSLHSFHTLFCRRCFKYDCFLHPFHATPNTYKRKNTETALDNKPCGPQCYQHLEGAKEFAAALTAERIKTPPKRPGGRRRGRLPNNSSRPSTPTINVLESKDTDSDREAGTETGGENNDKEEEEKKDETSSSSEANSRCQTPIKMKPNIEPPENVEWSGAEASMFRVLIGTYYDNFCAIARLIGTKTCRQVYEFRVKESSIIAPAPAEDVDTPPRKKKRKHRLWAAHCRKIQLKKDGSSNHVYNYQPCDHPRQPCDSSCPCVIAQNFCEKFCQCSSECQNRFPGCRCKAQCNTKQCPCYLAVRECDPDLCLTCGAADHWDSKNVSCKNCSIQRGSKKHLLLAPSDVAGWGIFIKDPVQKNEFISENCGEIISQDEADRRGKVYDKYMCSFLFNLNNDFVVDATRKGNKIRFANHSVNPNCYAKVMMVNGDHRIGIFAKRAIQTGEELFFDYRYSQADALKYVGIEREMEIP
Y641N EZH2, sequence (O75530 whole entry partner): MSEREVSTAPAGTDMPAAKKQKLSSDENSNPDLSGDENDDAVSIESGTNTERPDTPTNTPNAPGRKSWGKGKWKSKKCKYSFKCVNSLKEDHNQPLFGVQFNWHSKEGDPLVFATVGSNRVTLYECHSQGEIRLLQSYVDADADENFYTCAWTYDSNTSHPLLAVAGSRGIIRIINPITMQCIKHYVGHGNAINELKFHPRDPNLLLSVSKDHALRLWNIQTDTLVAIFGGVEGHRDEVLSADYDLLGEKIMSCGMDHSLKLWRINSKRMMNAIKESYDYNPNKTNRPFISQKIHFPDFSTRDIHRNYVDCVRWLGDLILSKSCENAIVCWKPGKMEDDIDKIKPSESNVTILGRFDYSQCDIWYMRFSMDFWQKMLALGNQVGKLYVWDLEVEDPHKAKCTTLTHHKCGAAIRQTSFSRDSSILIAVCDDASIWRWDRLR
Y641N EZH2, sequence (Q15022 whole entry partner): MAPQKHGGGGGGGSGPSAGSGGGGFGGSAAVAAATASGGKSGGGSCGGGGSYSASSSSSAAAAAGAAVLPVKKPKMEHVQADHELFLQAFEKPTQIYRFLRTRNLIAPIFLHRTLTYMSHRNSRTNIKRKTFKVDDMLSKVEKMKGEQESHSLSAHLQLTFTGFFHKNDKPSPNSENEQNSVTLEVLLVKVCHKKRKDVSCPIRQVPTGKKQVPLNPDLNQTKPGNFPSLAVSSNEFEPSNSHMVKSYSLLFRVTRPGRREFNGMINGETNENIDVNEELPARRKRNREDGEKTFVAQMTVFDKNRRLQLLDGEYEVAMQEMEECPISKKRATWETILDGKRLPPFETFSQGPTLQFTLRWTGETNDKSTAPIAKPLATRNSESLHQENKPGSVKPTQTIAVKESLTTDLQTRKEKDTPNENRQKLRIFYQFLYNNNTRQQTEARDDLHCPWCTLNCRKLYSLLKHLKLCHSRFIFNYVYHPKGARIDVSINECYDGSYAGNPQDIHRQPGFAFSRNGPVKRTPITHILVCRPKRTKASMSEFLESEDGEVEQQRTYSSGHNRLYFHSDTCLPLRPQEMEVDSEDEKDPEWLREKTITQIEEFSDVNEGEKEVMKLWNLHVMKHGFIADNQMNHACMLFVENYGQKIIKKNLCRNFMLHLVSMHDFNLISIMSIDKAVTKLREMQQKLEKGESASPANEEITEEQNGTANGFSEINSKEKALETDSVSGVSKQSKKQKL

EZH2, sequence (Q15910 whole entry): as the sequence (Q15910 whole entry Y641N) above, with N641Y counted along it
EZH2, sequence (O75530 whole entry partner): as the sequence (O75530 whole entry partner) above
EZH2, sequence (Q15022 whole entry partner): as the sequence (Q15022 whole entry partner) above

For orientation: IC50 means the midpoint of a concentration-inhibition curve. For `Cc1cc(C)c(CNC(=O)c2ccc(C3CCCO3)cc2)c(=O)[nH]1` (stereo not drawn) [Compound I-84, N-((2-hydroxy-4,6-dimethylpyridin-3-yl)methyl)-4-(tetrahydrofuran-2-yl)benzamide], the values for the half-maximal inhibitory concentration (IC50) on EZH2 and at Y641N EZH2 were 1 to 10 µM and 10 to 50 µM, respectively.
`Cc1cc(C)c(CNC(=O)c2ccc(C(C)Oc3ccc(F)cc3)cc2)c(=O)[nH]1` (stereo not drawn) [Compound I-46, 4-(1-(4-fluorophenoxy)ethyl)-N-((2-hydroxy-4,6-dimethylpyridin-3-yl)methyl)benzamide]: the IC50 against EZH2 and on Y641N EZH2 was below 1 µM throughout.
On to `Cc1cc(C)c(CNC(=O)c2ccc(C(Oc3ccccc3)C(C)C)cc2)c(=O)[nH]1` (stereo not drawn) [Compound I-43, N-((2-hydroxy-4,6-dimethylpyridin-3-yl)methyl)-4-(2-methyl-1-phenoxypropyl)benzamide], for which the values for the half-inhibitory concentration (IC50) against EZH2 and against Y641N EZH2 were 10 to 50 µM and above 50 µM, respectively.
For the compound `Cc1cc(C)c(CNC(=O)c2ccc(C3CCOC3)cc2)c(=O)[nH]1` (stereo not drawn) [Compound I-83, N-((2-hydroxy-4,6-dimethylpyridin-3-yl)methyl)-4-(tetrahydrofuran-3-yl)benzamide], the IC50 on EZH2 is below 1 µM; on Y641N EZH2, 1 to 10 µM.
Consider `Cc1cc(C)c(CNC(=O)c2ccc(Oc3ccccc3C#N)cc2)c(=O)[nH]1` [Compound I-2, 4-(2-cyanophenoxy)-N-((2-hydroxy-4,6-dimethylpyridin-3-yl)methyl)benzamide], for which the results for the 50% inhibitory concentration (IC50) against EZH2 and at Y641N EZH2 were 1 to 10 µM and 10 to 50 µM, respectively.
Taken in the same sequence, the figures for `Cc1cc(C)c(CNC(=O)c2ccc(C(C)N3CCCCC3)cc2C)c(=O)[nH]1` (stereo not drawn) [Compound I-87, N-((2-hydroxy-4,6-dimethylpyridin-3-yl)methyl)-2-methyl-4-(1-(piperidin-1-yl)ethyl)benzamide] were 1 to 10 µM and 1 to 10 µM.
For the compound `COc1cc(C)[nH]c(=O)c1CNC(=O)c1ccc(Oc2ccccc2)cc1` [Compound I-195, N-((2-hydroxy-4-methoxy-6-methylpyridin-3-yl)methyl)-4-phenoxybenzamide], the values for the 50% inhibitory concentration (IC50) against EZH2 and against Y641N EZH2 were below 1 µM and 1 to 10 µM, respectively.
Take `Cc1cc(C)c(CN(C)C(=O)c2ccc(Oc3cccc(-c4ccncn4)c3C#N)c(Cl)c2)c(O)n1` [Compound I-17, 3-chloro-4-(2-cyano-3-(pyrimidin-4-yl)phenoxy)-N-((2-hydroxy-4,6-dimethylpyridin-3-yl)methyl)-N-methylbenzamide]: the IC50 at EZH2 is 1 to 10 µM; against Y641N EZH2, above 50 µM.
In the case of `Cc1cc(C)c(CNC(=O)c2ccc([C@H](C)Oc3cccc(-c4ccc(N)nc4)c3)cc2)c(=O)[nH]1` [Compound I-69], the half-inhibitory concentration (IC50) at EZH2 and against Y641N EZH2 was below 1 µM throughout.
